52 compounds from patent US10184933B2, “Compositions, systems and methods for gene expression noise drug screening and uses thereof” (priority 2013, dated 2019) can be followed below.

Counter-ions that a name gives are not always drawn. Like-named read-outs stand apart in the source and are kept apart here.

This test concerns HIV-1 LTR promoter. The test is classed as cell-based.
Setting [1] is: Pharmakon 1600 library, 10 uM, 24 hours, FIG. 10.
Where [2] appears, read: Pharmakon 1600 library, 10 uM, 24 hours, FIG. 12.

Consider `CN(Cc1cnc2nc(N)nc(N)c2n1)c1ccc(C(=O)N[C@@H](CCC(=O)O)C(=O)O)cc1` (racemic) [methotrexate(+/−)], for which the “identified as variability enhancer (VE) in noise screen” value (from here on “identified as variability enhancer”) under setting [1] is reported as “variability enhancers”.

Regarding `COC(=O)C1=CCCN(C)C1` [Arecoline hydrobromide], under setting [1], the “identified as variability enhancer” value was “variability enhancers”.

In the case of `COc1ccc(Cc2nccc3cc(OC)c(OC)cc23)cc1OC` [Papaverine hydrochloride], under setting [2], the “identified as variability suppressor (VS) in noise screen” value (“identified … (VS) in noise screen” for short) is “variability suppressors”.

`CC(=O)O[C@H]1C(=O)[C@@]2(C)[C@H]([C@H](OC(=O)c3ccccc3)[C@]3(O)C[C@H](OC(=O)[C@H](O)[C@@H](NC(=O)c4ccccc4)c4ccccc4)C(C)=C1C3(C)C)[C@]1(OC(C)=O)CO[C@@H]1C[C@@H]2O` [Taxol]: the “identified as variability enhancer” value under setting [1] is recorded as “variability enhancers”.

Consider `S=c1nc[nH]c2nc[nH]c12` [V9, mercaptopurine], for which the “identified as variability enhancer” value under setting [1] is “variability enhancers”.

Consider `N=C(N)NCCN1CCCCCCC1` [V21, guanethidine sulfate], for which the “identified as variability enhancer” value is reported as “variability enhancers”.

`CC(C)(C#N)c1cc(Cn2cncn2)cc(C(C)(C)C#N)c1` [V68, anastrozole]: the “identified as variability enhancer” value under setting [1] is “variability enhancers”.

Take `CS(=O)(=O)OCCCCOS(C)(=O)=O` [V69, busulfan]: under setting [1], the “identified as variability enhancer” value is “variability enhancers”.

With `Nc1nc2[nH]cc(CCc3ccc(C(=O)N[C@@H](CCC(=O)O)C(=O)O)cc3)c2c(=O)[nH]1` [V74, pemetrexed], the “identified as variability enhancer” value under setting [1] is recorded as “variability enhancers”.

As to `Nc1ncnc2c1ncn2[C@@H]1O[C@H](COP(=O)(O)O)[C@@H](O)[C@H]1O` [adenosine phosphate], the “identified … (VS) in noise screen” value under setting [2] is “variability suppressors”.

In the case of `CCCSc1ccc2nc(NC(=O)OC)[nH]c2c1` [albendazole], the “identified as variability enhancer” value is “variability enhancers”.

As to `Nc1c2ccccc2nc2ccccc12` [aminacrine], the “identified as variability enhancer” value under setting [1] is “variability enhancers”.

Turning to `Cl.N=C(N)NCCC[C@H](N)C(=O)O` [arginine hydrochloride], the “identified as variability enhancer” value under setting [1] was “variability enhancers”.

`CN(C)CCCOc1nn(Cc2ccccc2)c2ccccc12` [benzydamine hydrochloride]: the “identified … (VS) in noise screen” value under setting [2] is recorded as “variability suppressors”.

For `Cc1ccc2c(Br)cc(Br)c(OC(=O)c3ccccc3)c2n1` [broxaldine], the “identified … (VS) in noise screen” value under setting [2] is recorded as “variability suppressors”.

Turning to `C[N+](C)(C)CC(O)CC(=O)[O-].Cl` (stereo not shown) [carnitine hydrochloride], the “identified as variability enhancer” value under setting [1] is “variability enhancers”.

As for `Nc1nc(Cl)nc2c1ncn2[C@@H]1O[C@H](CO)[C@@H](O)[C@@H]1F` [clofarabine], the “identified as variability enhancer” value under setting [1] is recorded as “variability enhancers”.

Turning to `C[C@@H]1C[C@@H]([C@H](O)CC2CC(=O)NC(=O)C2)C(=O)[C@@H](C)C1` [cycloheximide], under setting [2], the “identified … (VS) in noise screen” value is recorded as “variability suppressors”.

Turning to `Nc1ccn([C@@H]2O[C@H](CO)[C@@H](O)[C@@H]2O)c(=O)n1` [cytarabine, (β-D-arabinofuranosyl)cytosine], the “noise deviation of VM hit in the screen” value (10 uM, 24 hours) is “+5 σ”.

On to `COP(=O)(OC)OC=C(Cl)Cl` [dichlorvos], for which the “identified … (VS) in noise screen” value under setting [2] is listed as “variability suppressors”.

For `C[C@H]1O[C@@H](O[C@H]2[C@@H](O)C[C@H](O[C@H]3[C@@H](O)C[C@H](O[C@H]4CC[C@@]5(C)[C@H](CC[C@@H]6[C@@H]5CC[C@]5(C)[C@@H](C7=CC(=O)OC7)CC[C@]65O)C4)O[C@@H]3C)O[C@@H]2C)C[C@H](O)[C@@H]1O` [digitoxin], the “identified as variability enhancer” value under setting [1] is on record as “variability enhancers”.

For `C[C@H]1O[C@@H](O[C@H]2[C@@H](O)C[C@H](O[C@H]3[C@@H](O)C[C@H](O[C@H]4CC[C@@]5(C)[C@H](CC[C@@H]6[C@@H]5C[C@@H](O)[C@]5(C)[C@@H](C7=CC(=O)OC7)CC[C@]65O)C4)O[C@@H]3C)O[C@@H]2C)C[C@H](O)[C@@H]1O` [digoxin], the “identified as variability enhancer” value was “variability enhancers”.

As to `CC(CCc1ccc(O)cc1)NCCc1ccc(O)c(O)c1` (stereo not shown) [dobutamine hydrochloride], under setting [1], the “identified as variability enhancer” value is listed as “variability enhancers”.

For the compound `CCN1CC(CCN2CCOCC2)C(c2ccccc2)(c2ccccc2)C1=O` (stereo not shown) [doxapram hydrochloride], under setting [1], the “identified as variability enhancer” value is “variability enhancers”.

As to `C[C@@H](O)CN(CCN(C[C@@H](C)O)C[C@@H](C)O)C[C@@H](C)O` [editol], the “identified as variability enhancer” value under setting [1] was “variability enhancers”.

For `CN1C[C@H](C(=O)N[C@]2(C)O[C@@]3(O)[C@@H]4CCCN4C(=O)[C@H](Cc4ccccc4)N3C2=O)C=C2c3cccc4[nH]cc(c34)C[C@H]21` [ergotamine tartrate], under setting [2], the “identified … (VS) in noise screen” value is given as “variability suppressors”.

For `O=C1OC2(c3ccccc31)c1cc(I)c(O)c(I)c1Oc1c2cc(I)c(O)c1I` [erythrosine sodium], the “identified as variability enhancer” value under setting [1] is recorded as “variability enhancers”.

Take `COC(=O)Nc1nc2ccc(Sc3ccccc3)cc2[nH]1` [fenbendazole]: the “identified as variability enhancer” value under setting [1] is “variability enhancers”.

Turning to `N#Cc1nn(-c2c(Cl)cc(C(F)(F)F)cc2Cl)c(N)c1[S+]([O-])C(F)(F)F` (stereo not shown) [fipmnil, fipronil], the “identified … (VS) in noise screen” value under setting [2] is recorded as “variability suppressors”.

Take `COC1=CC(=O)C[C@@H](C)[C@]12Oc1c(Cl)c(OC)cc(OC)c1C2=O` [griseofulvin]: the “identified as variability enhancer” value under setting [1] is on record as “variability enhancers”.

`CCCCCC(=O)O[C@]1(C(C)=O)CC[C@H]2[C@@H]3CCC4=CC(=O)CC[C@]4(C)[C@H]3CC[C@@]21C` [hydroxyprogesterone caproate]: the “identified … (VS) in noise screen” value under setting [2] was “variability suppressors”.

`CCc1c2c(nc3ccc(OC(=O)N4CCC(N5CCCCC5)CC4)cc13)-c1cc3c(c(=O)n1C2)COC(=O)[C@]3(O)CC` [irinotecan hydrochloride]: the “identified as variability enhancer” value under setting [1] was “variability enhancers”.

In the case of `O=C(O)c1nn(Cc2ccc(Cl)cc2Cl)c2ccccc12` [lonidamine], under setting [1], the “identified as variability enhancer” value is given as “variability enhancers”.

Take `CNCCCC12CCC(c3ccccc31)c1ccccc12` [maprotiline hydrochloride]: the “identified … (VS) in noise screen” value is given as “variability suppressors”.

In the case of `N[C@@H](Cc1ccc(N(CCCl)CCCl)cc1)C(=O)O` [melphalan], the “identified as variability enhancer” value under setting [1] was “variability enhancers”.

With `CO[C@@]12[C@H](COC(N)=O)C3=C(C(=O)C(C)=C(N)C3=O)N1C[C@@H]1N[C@@H]12` [mitomycin c], under setting [1], the “identified as variability enhancer” value is “variability enhancers”.

With `CCN(CC)C(=O)c1cccnc1` [nikethamide], the “identified as variability enhancer” value under setting [1] is “variability enhancers”.

Regarding `C[C@@H]1O[C@@H](O[C@H]2C[C@@H](O)[C@]3(CO)[C@H]4[C@H](O)C[C@]5(C)[C@@H](C6=CC(=O)OC6)CC[C@]5(O)[C@@H]4CC[C@]3(O)C2)[C@H](O)[C@H](O)[C@H]1O` [ouabain], the “identified as variability enhancer” value under setting [1] is on record as “variability enhancers”.

In the case of `COC(=O)Nc1nc2ccc([S+]([O-])c3ccccc3)cc2[nH]1` (stereo not shown) [oxfendazole], the “identified as variability enhancer” value under setting [1] was “variability enhancers”.

For `[H]/N=C(/N)N/C(=N/[H])NCCc1ccccc1` [phenformin hydrochloride], the “identified … (VS) in noise screen” value was “variability suppressors”.

Take `c1ccc2c(c1)Nc1ccccc1S2` [phenothiazine]: the “identified … (VS) in noise screen” value under setting [2] was “variability suppressors”.

For `CC(=O)[O-].[Hg+][c]1ccccc1` [phenylmercuric acetate], the “identified as variability enhancer” value is reported as “variability enhancers”.

On to `[O-][n+]1ccccc1[S-].[O-][n+]1ccccc1[S-].[Zn+2]` [pyrithione zinc], for which the “identified … (VS) in noise screen” value is recorded as “variability suppressors”.

`Cc1cc2nc3c(=O)[nH]c(=O)nc-3n(C[C@H](O)[C@H](O)[C@H](O)COP(=O)([O-])O)c2cc1C.[Na+]` [riboflavin 5-phosphate sodium]: under setting [1], the “identified as variability enhancer” value is “variability enhancers”.

As to `Cc1cc2nc3c(=O)[nH]c(=O)nc-3n(C[C@H](O)[C@H](O)[C@H](O)CO)c2cc1C` [riboflavin], the “identified as variability enhancer” value is recorded as “variability enhancers”.

As for `CO[C@H]1/C=C/O[C@@]2(C)Oc3c(C)c(O)c4c(O)c(c5c(nc6cc(C)ccn65)c4c3C2=O)NC(=O)/C(C)=C\C=C\[C@H](C)[C@H](O)[C@@H](C)[C@@H](O)[C@@H](C)[C@H](OC(C)=O)[C@@H]1C` [rifaximin], the “identified as variability enhancer” value under setting [1] was “variability enhancers”.

In the case of `NCCS(=O)(=O)O` [taurine], the “identified as variability enhancer” value under setting [1] was “variability enhancers”.

`c1ccc(C2CN3CCSC3=N2)cc1` (stereo not shown) [tetramizole hydrochloride]: the “identified as variability enhancer” value was “variability enhancers”.

On to `Nc1nc2nc[nH]c2c(=S)[nH]1` [thioguanine], for which the “identified as variability enhancer” value is recorded as “variability enhancers”.

For the compound `C=C(NC(=O)C(=C)NC(=O)c1csc(C2=N[C@@H]3c4csc(n4)[C@H]4NC(=O)c5csc(n5)[C@H]([C@](C)(O)[C@@H](C)O)NC(=O)[C@H]5CSC(=N5)/C(=C/C)NC(=O)[C@H]([C@@H](C)O)NC(=O)c5csc(n5)[C@]3(CC2)NC(=O)[C@H](C)NC(=O)C(=C)NC(=O)[C@H](C)NC(=O)[C@H]([C@@H](C)CC)N[C@@H]2C=Cc3c([C@H](C)O)cc(nc3[C@H]2O)C(=O)O[C@@H]4C)n1)C(N)=O` [thiostrepton], under setting [1], the “identified as variability enhancer” value is “variability enhancers”.

Take `CN(C)C(=S)SSC(=S)N(C)C` [thiram]: the “identified as variability enhancer” value under setting [1] is recorded as “variability enhancers”.

For `COP(=O)(OC)C(O)C(Cl)(Cl)Cl` (stereo not shown) [trichlorfon], under setting [2], the “identified … (VS) in noise screen” value is given as “variability suppressors”.
